# Source: patent US20100267626A1, “METHODS AND COMPOSITIONS FOR MEASURING WNT ACTIVATION AND FOR TREATING WNT-RELATED CANCERS” (Novartis AG, priority 2007, published 2010)
# Peptide text beside a SMILES is read from it. * marks the point of attachment. Cbz = O=C(OCc1ccccc1)*
# Experiments:
# [1] = tested on: Wnt3A stimulated STF activity; assay: Wnt-responsive Super-Topflash (STF) luciferase reporter assay in HEK293 cells; type: cell-based
# Description: The corresponding reporter activity for each compound dilution was normalized to DMSO and expressed as a percentage of the reporter activity in DMSO.
# To identify small molecule inhibitors of the Wnt/β-catenin pathway, a high-throughput compound screen was employed, with over one million compounds, using a Wnt-responsive Super-Topflash (STF) luciferase reporter assay in HEK293 cells.
# [2] = tested on: DLD-1 cells; assay: Colony formation assay, DLD-1 cells; type: cell-based; settings: low serum growth conditions
# Method: FIG. 6A. […] DLD1 and RKO cells were seeded at […] in a 6-well plate in medium containing 0.5% serum and indicated compounds, and replenished with fresh medium every two days. Colonies were visualized by crystal violet staining.
# FIG. 6B. […] DLD1 cells were transfected with siRNAs against Axin1 and Axin2, and seeded at 1000 cells/well in a 6-well plate. The compound treatment was carried out as described in 6A.
# (§1) The colony formation assay was performed as follows: DLD1 and RKO cells were seeded in low serum growth medium (0.5% FBS) at 500 and 1000 cells/well, respectively, into […]. Sixteen hours after plating, compounds were added at the indicated concentrations. Medium was replenished every two days until colony formation was observed. Colonies were stained by a solution of 2 mg/ml crystal violet in buffered formalin and imaged on a Molecular Imager ChemiDoc XRS System (BioRad).
# [3] = tested on: TNKS; settings: doses 1 nM to 100 μM
# [4] = target: C-terminal PARP domain of TNKS2 (GST-TNKS2 PARP) (Homo sapiens, UniProt Q9H2K2); assay: In vitro auto-PARsylation assay of TNKS2
# C-terminal PARP domain of TNKS2 (GST-TNKS2 PARP), sequence (Q9H2K2 934-1166): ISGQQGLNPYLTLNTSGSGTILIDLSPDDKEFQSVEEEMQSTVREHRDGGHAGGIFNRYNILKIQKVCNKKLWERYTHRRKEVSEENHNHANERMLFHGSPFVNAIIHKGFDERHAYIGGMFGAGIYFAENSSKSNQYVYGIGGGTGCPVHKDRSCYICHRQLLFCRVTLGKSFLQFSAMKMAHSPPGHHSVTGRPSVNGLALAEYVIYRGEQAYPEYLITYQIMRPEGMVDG
# Description: Tankyrase, utilizing NAD^+, catalyzes poly(ADP-ribosyl)ation of itself (autoparsylation) or targeted proteins (substrate parsylations). In each reaction turnover, the enzyme consumes one unit of NAD^+, add one unit of ADP-ribose to the polymer chain, releases one unit of nicotinamide. The autoparsylation activity assay is designed to monitor the nicotinamide formation and the reduction in the nicotinamide formation in the presence of tankyrase small molecule inhibitors. The quantification of nicotinamide is carried out by liquid chromatography/mass spectrometry (LC/MS).
# Prior to LC/MS analysis, the protein in the reaction mixture was removed by precipitation/centrifugation method after added two aliquots of acetonitrile.
# [5] = tested on: PARP1/2; assay: Dose response compound competition experiment (immunoblot); settings: doses 1 nM to 100 μM
# [6] = tested on: Axin1 and Axin2; assay: Axin ubiquitination in SW480 cells (immunoprecipitation/immunoblot); type: cell-based, human
# Description: The position that Axin1 migrates is labeled with an arrow.
# FIG. 5E. […] (IP: immunoprecipitation, TCL: total cell lysates)
# [7] = tested on: CRE luciferase reporter; assay: CRE luciferase reporter in HEK293 cells (Forskolin activated); type: cell-based
# [8] = tested on: NF-κB luciferase reporter; assay: NF-κB luciferase reporter in HEK293 cells (TNFα activated); type: cell-based
# [9] = tested on: TGFβ luciferase reporter; assay: TGFβ (CAGA12) luciferase reporter in HEK293 cells; type: cell-based
# [10] = tested on: β-catenin; assay: Immunoblot of cytosolic β-catenin in Wnt3A stimulated HEK293 cells; type: cell-based
# Method: Cell lysates were fractionated and immunoblotted for cytosolic β-catenin.
# To generate cytosolic lysates, cells were scraped into hypotonic buffer (10 mM Tris-HCl pH7.5, 10 mM KCl), and cell lysates were cleared by centrifugation after four freeze-thaw cycles. In all above experiments, 1× protease inhibitor cocktail (Sigma) and 1× phosphatase inhibitor cocktail (Upstate) were added into lysis buffers.
# [11] = tested on: β-catenin; assay: Immunoblot of β-catenin and phospho-β-catenin in SW480 cells; type: cell-based, human
# Method: To generate cytosolic lysates, cells were scraped into hypotonic buffer (10 mM Tris-HCl pH7.5, 10 mM KCl), and cell lysates were cleared by centrifugation after four freeze-thaw cycles. In all above experiments, 1× protease inhibitor cocktail (Sigma) and 1× phosphatase inhibitor cocktail (Upstate) were added into lysis buffers. Commercial antibodies used in this study include goat anti-Axin1 antibodies (R&D Systems), rabbit anti-Axin2 antibodies and rabbit anti-phospho-β-catenin (pSer33/37/Thr41) antibodies (Cell Signaling Technology), mouse anti-TNKS antibodies (Abeam), mouse anti-HA (HA.11) antibodies (Covance), mouse anti-β-catenin antibodies, rabbit anti-Poly(ADP-ribose) antibodies, and rabbit anti-PARP1 antibodies (BD Pharmingen), mouse anti-ubiquitin antibody (MBL), rabbit anti-GFP antibodies (Clontech), mouse anti-tubulin and mouse anti-Flag (M2) antibodies (Sigma).
# [12] = tested on: Axin1 and Axin2; assay: Immunoblot of Axin protein levels after compound treatment; type: cell-based, human; settings: after XAV939 treatment
# [13] = target: PARP2 (Homo sapiens, UniProt Q9UGN5); assay: iTRAQ quantitative chemical proteomics competition, HEK293 cell lysates; type: binding; settings: 20 μM soluble compound, relative to DMSO
# PARP2, sequence (Q9UGN5 whole entry, the tested form may be a part): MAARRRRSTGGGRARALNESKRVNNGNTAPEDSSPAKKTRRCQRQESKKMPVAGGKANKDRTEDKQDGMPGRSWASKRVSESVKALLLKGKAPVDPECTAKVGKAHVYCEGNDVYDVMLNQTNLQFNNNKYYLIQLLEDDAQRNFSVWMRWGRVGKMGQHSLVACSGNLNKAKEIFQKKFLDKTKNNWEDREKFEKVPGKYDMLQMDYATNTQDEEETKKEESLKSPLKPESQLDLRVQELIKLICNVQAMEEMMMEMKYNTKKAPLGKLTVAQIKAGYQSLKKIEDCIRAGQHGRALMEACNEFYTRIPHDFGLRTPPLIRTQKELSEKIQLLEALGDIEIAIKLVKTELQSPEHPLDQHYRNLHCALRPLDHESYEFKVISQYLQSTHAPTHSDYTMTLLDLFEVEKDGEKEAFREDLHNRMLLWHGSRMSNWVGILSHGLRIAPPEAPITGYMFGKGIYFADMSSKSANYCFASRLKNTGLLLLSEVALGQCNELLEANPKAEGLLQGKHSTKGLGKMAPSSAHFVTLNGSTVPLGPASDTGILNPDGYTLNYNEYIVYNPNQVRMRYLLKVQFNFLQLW
# Method: By using iTRAQ, a chemical peptide labeling technique, the 3 samples were multiplexed and quantified binding displacement (% competition) relative to the vehicle (DMSO) by LC-MS/MS analysis.
# Sequencing was performed by liquid chromatography-tandem mass spectrometry on a LTQ-Orbitrap mass spectrometer (Thermo-Finnigan). Tandem mass spectra were generated using pulsed-Q dissociation, enabling detection of iTRAQ reporter ions. Peptide mass and fragmentation data were used to query an in-house curated version of the IPI database using Mascot (Matrix Science). Protein identifications were validated using a decoy database. iTRAQ reporter ion-based quantification was performed with in-house developed software.
# Lysate was pre-cleared by centrifugation and protein concentration measured by Bradford assay. […] Then 100 μl of negative control-matrix was added and incubation resumed at 4° C. for another 60 min. After centrifugation, beads were transferred into a column (MoBiTech) and washed.
# [14] = tested on: GFP-Axin1; assay: GFP-Axin1 fusion construct protein levels in SW480 cell lines; type: cell-based, mouse
# Description: FIG. 4E. The TNKS binding domain is required for XAV939-induced Axin1 protein accumulation. […] Total cell lysates were harvested and analyzed by immunoblotting.
# (§2) The SuperTopFlash (STF) methods described in at least Example 1 employed plasmids manufactured as follows: SuperTopflash reporter was generated by inserting twelve TCF binding sites into pTA-Luc (Clontech). Mouse Axin1 and its mutants were fused with either GFP or FLAG epitope at the amino termini and cloned into a retroviral vector under the control of the metallothionein promoter. Human TNKS1/2 and their mutants were tagged with FLAG epitope fused at the amino termini and cloned into a mammalian expression vector under the control of the cytomegalovirus (CMV) promoter. Drosophila Axin fused with three HA epitopes at the carboxyl terminus was cloned in a Drosophila expression vector under the control of the metallothionein promoter. A sequence encoding the amino terminal fragment of mouse Axin1 (a.a. 1-87) was cloned in a Tet-regulated expression vector pcDNA4-TO (Invitrogen). Several proteins were cloned using Gateway technology (Invitrogen) into the expression vector pDEST15 (Invitrogen, Carlsbad, Calif.): TNKS1-P(1088-1327), TNKS2-P(934-1166), TNKS2-SP (872-1166), PARP1-P (662-1014) and PARP16-P (93-273).
# The functional consequences of disrupting the physical interaction between Axin and TNKS were assessed. […]. […] […].
# [15] = tested on: GFP-Axin; assay: PARsylation of exogenously expressed GFP-Axin in cells; type: cell-based, mouse; settings: anti-PAR antibody
# Method: FIG. 5D. In vivo PARsylation of Axin1. SW480 cells stably expressing GFP-Axin1 under control of the metallothionein promoter were incubated with Cu^2+ overnight to induce expression of GFP-Axin1. […] Lysates were harvested with RIPA buffer containing PARG inhibitor ADP-HPD (5 μM) and PARP1 inhibitor PJ34 (80 μM), immunoprecipitated with GFP antibody and analyzed by immunoblotting.
# as §2, with “Several proteins were cloned using Gateway technology (Invitrogen) into the expression vector pDEST15 (Invitrogen, Carlsbad, Calif.): TNKS1-P(1088-1327), TNKS2-P(934-1166), TNKS2-SP (872-1166), PARP1-P (662-1014) and PARP16-P (93-273).” left out
# [16] = tested on: RKO cells; assay: Colony formation assay, RKO cells; type: cell-based; settings: low serum growth conditions, β-catenin independent cells
# Method: […]. DLD1 and RKO cells were seeded at 500 cells/well in a 6-well plate in medium containing 0.5% serum and indicated compounds, and replenished with fresh medium every two days. Colonies were visualized by crystal violet staining.
# as §1
# [17] = tested on: cell lines used in this study; assay: Mitotic arrest phenotype in cell lines; type: cell-based; settings: low or high serum conditions
# Description: TNKS1/TNKS2 have been described to regulate mitotic progression, telomere maintenance, and GLUT4 transport. (Canudas, S., et al. (2007) Embo J 26, 4867-78 (2007); Seimiya, H., et al. (2002) J Biol Chem 277, 14116-26) In particular, TNKS1 was proposed to be required for the resolution of sister telomere association or assembly of bipolar spindles, and TNKS1 knockdown was reported to cause strong mitotic arrest.
# [18] = tested on: Axin-GSK3β complex; assay: Axin-GSK3β complex formation
# Method: Total cell lysates were prepared by cell lysis in RIPA buffer (50 mM Tris-HCl, pH 7.4, 150 mM NaCl, 1% NP-40, 0.5% sodium deoxycholate, 0.1% SDS, 1 mM EDTA). Equal amount of proteins were resolved by SDS-PAGE, transferred to nitrocellulose membranes and probed with indicated antibodies. For co-immunoprecipitation experiments, cells were lysed in EBC buffer (50 mM Tris-HCl, pH 7.4, 150 mM NaCl, 0.5% NP-40, 1 mM EDTA), cleared cell lysates were incubated with indicated antibodies and Protein G-sepharose beads overnight at 4° C. The beads were washed five times with lysis buffer. The bound proteins were dissolved in SDS sample buffer, resolved by SDS-PAGE, and blotted with indicated antibodies.
# [19] = tested on: Axin1 and Axin2 transcript; assay: Axin transcript levels (quantitative RT-PCR); settings: after compound treatment
# Method: Total RNA from compound or siRNA treated cells was extracted using the RNeasy Mini Kit (Qiagen) and reverse transcribed with Taqman Reverse Transcription Reagents (Applied Biosystems) according to the manufacturer's instructions. Transcript levels were assessed using the ABI PRISM 7900HT Sequence Detection System. […] The thermocycling conditions utilized were 2 min at 50° C., 10 min at 95° C., followed by 40 cycles of 15 sec at 95° C. and 1 min at 60° C. All experiments were performed in triplicate. Gene expression analysis was performed using the comparative CT method with the housekeeping gene, GUSB, for normalization.
# [20] = tested on: Axin2; assay: PARsylation of endogenous Axin2 in compound wash-off experiment; settings: MG132 plus XAV939
# Method: Post-translational modification of Axin2 in a compound wash-off experiment. […] Cell lysates were harvested with RIPA buffer, immunoprecipitated with anti-Axin2 antibody, and analyzed by immunoblotting.
# Total cell lysates were prepared by cell lysis in RIPA buffer (50 mM Tris-HCl, pH 7.4, 150 mM NaCl, 1% NP-40, 0.5% sodium deoxycholate, 0.1% SDS, 1 mM EDTA). Equal amount of proteins were resolved by SDS-PAGE, transferred to nitrocellulose membranes and probed with indicated antibodies. For co-immunoprecipitation experiments, cells were lysed in EBC buffer (50 mM Tris-HCl, pH 7.4, 150 mM NaCl, 0.5% NP-40, 1 mM EDTA), cleared cell lysates were incubated with indicated antibodies and Protein G-sepharose beads overnight at 4° C. The beads were washed five times with lysis buffer. The bound proteins were dissolved in SDS sample buffer, resolved by SDS-PAGE, and blotted with indicated antibodies. To detect protein ubiquitination and PARsylation in vivo, cells were lysed with RIPA buffer supplemented with 5 mM NEM and 5 μM ADP-HPD to block the activities of Deubiquitinase and PARG, and followed by immunoprecipitation with indicated antibodies.
# [21] = wash-off experiment, MG132 alone
smiles,measurement,setting,value
CC(=O)N1CCc2nc(-c3ccc(C(F)(F)F)cc3)[nH]c(=O)c2C1 [LDW643],Wnt3A stimulated STF activity,[1],no activity
same,colony formation of DLD-1 cells,[2],did not affect
same,"activity in compound competition, TNKS binding",[3],no activity
same,auto-PARsylation of GST-TNKS2 PARP,[4],not affected
same,"activity in compound competition, PARP1/2 binding",[5],no activity
CC(C)C[C@@H](C=O)NC(=O)[C@H](CC(C)C)NC(=O)[C@H](CC(C)C)NC(=O)OCc1ccccc1 [MG132] (Cbz-Leu-Leu-Leu-aldehyde),poly-ubiquitination of Axin1,[6]; MG132 alone,increased significantly
same,Axin2 degradation after XAV939 wash-off,[6]; [21],blocked
same,Axin2 poly-ubiquitination after XAV939 wash-off,[6]; [21],strongly increased
Oc1nc(-c2ccc(C(F)(F)F)cc2)nc2c1CSCC2 [XAV939],effect on CRE luciferase reporter,[7],did not affect
same,effect on NF-κB luciferase reporter,[8],did not affect
same,effect on TGFβ luciferase reporter,[9],did not affect
same,Wnt3A-induced accumulation of β-catenin,[10],block
same,β-catenin abundance,[11],decreased
same,β-catenin phosphorylation (S33/S37/T41),[11],significantly increased
same,protein levels of Axin1 and Axin2,[12],strongly increased
same,binding displacement (% competition) PARP2,[13],88%
same,GFP-Axin1Δ19-30 protein levels,[14]; cells expressing GFP-Axin1Δ19-30 (TBD deleted),did not further respond
same,wild-type GFP-Axin1 protein levels,[14]; cells expressing wild-type GFP-Axin1,strongly increased
same,Axin1 and Axin2 poly-ubiquitination,[6]; co-treatment of XAV939 with MG132,significantly diminished
same,ubiquitination of Axin2,"[6]; wash-off experiment, co-treatment with XAV939 and MG132",completely blocked
same,PARsylation signal of GFP-Axin in cells,[15],strongly reduced
same,colony formation of DLD-1 cells,[2],significantly inhibited
same,colony formation in RKO cells,[16],did not affect
same,mitotic arrest phenotype,[17],did not result in any overt mitotic arrest phenotype
same,Axin-GSK3β complex formation,[18],strong increase
same,transcript levels of Axin1 and Axin2,[19],unaffected
same,anti-PAR antibody reactive signal co-migrating with Axin2,[20],disappeared
